Measured values as given in patent US11622955B2, “Sigma-1 receptor agonist systolic blood pressure therapy” (ANAVEX LIFE SCIENCES CORP., priority 2017, dated 2023).
Structures can show the parent of a compound that is named as a salt.

Key:
[1] = Example 3: trough systolic blood pressure, combination with a thiazine diuretic; format: in vivo, human; conditions: person
Procedure: Effect of 10 mg Once Daily Dosage A2-73 Combination Treatment with a Thiazine Diuretic.
The subject continues on the chlorothalidone and is started on oral A2-73 at a daily dosage of 10 mg/day for a period of 25 days. Their trough systolic blood pressure is then measured at 135 mg Hg and maintained indefinitely with the combined chlorothalidone and daily oral dose of 10 mg of A2-73.

[2] = Example 2: maximum diurnal systolic blood pressure, combination with a β1-selective agent; format: in vivo, human; conditions: person
Source text: “Maximum diurnal” systolic or diastolic BP is a measure of highest systolic or diastolic blood pressure recorded in a 24-hour period. Without being bound by any particular theory, it is believed that a maximal diurnal BP reflects the peak of the natural diurnal blood pressure cycle, typically occurring in the morning, for example between about 5 am and about 11 am. Commonly, a second peak occurs in the evening, for example between about 5 pm and 10 pm. Such a bimodal waveform diurnal ambulatory BP pattern may be especially characteristic of resistant hypertension.
Effect of 50 mg Once Daily Dosage A2-73 Combination Treatment with a β1-Selective Agent.
The subject continues on the metoprolol tartrate, and is started on oral A2-73 at a daily dosage of 50 mg/day for a period of 25 days. Their maximum diurnal systolic blood pressure is then measured at 135 mg Hg and maintained indefinitely with the combined metoprolol tartrate and daily oral dose of 50 mg of A2-73.

[3] = Example 1: 24-hour ambulatory systolic blood pressure in a patient with high SBP; format: in vivo, human; conditions: person
Procedure: Another measure of blood pressure is “24-hour ambulatory” blood pressure. A “24-hour ambulatory” systolic or diastolic BP is an average of systolic or diastolic measurements taken repeatedly in the course of a 24-hour period, in an ambulatory subject.
Effect of 5 mg and 30 mg Once Daily dosage A2-73.
The dose of A2-73 is then increased so that the subject is administered A2-73 daily, at a dosage of 30 mg/day for a period of 25 days. His 24-hour ambulatory systolic blood pressure is then measured at 135 mg Hg and maintained indefinitely with the daily oral dose of 30 mg of A2-73.

[4] = cited from earlier work
[5] = Phase IIa clinical trial in Alzheimer's disease patients, post-hoc evaluation of systolic blood pressure; format: in vivo, human
Procedure: FIG. 1 is a graph of systolic blood pressure readings of 32 human patients of both sexes, across multiple visits, adjusted for time of BP measurement, gender, age, body mass index, and previous or concurrent use of antihypertensive medication.
BPs were measured at four time points during the study period: 1) the day of screening for enrollment, 2) day one of treatment with either oral or intravenous medication (BP measurements were obtained prior to medication administration), 3) day 25 of treatment (when patients crossed over to receive whichever formulation, oral or intravenous, they had not received previously), and 4) day 36 (conclusion of the PART A of the Phase IIa study). Statistical analyses included paired t-testing comparing changes in BPs across each measurement, as well as multivariable linear mixed effects modeling (adjusted for time of measurement, gender, age, body mass index, and use of antihypertensive medication) to account for within-individual repeated measurements over time.
Thirty-two Alzheimer's disease patients took part in the phase IIa trial. Mean age was 69.5 (standard deviation [SD] 9.8) years, 60% were male, mean body mass index was 26.5 (SD 3.9) kg/m2, and 50% were on antihypertensive medication at the time of screening. […] In multivariable adjusted models (FIG. 1), there was no significant difference in SBP between the first and second readings (p=0.211). […] Of note, no patients reported any changes in their antihypertensive regimen while taking part in the trial.

[6] = single oral dose, healthy male volunteers

NS(=O)(=O)c1cc(C2(O)NC(=O)c3ccccc32)ccc1Cl (racemic) [chlorothalidone, (RS)-2-Chloro-5-(1-hydroxy-3-oxo-2,3-dihydro-1H-isoindol-1-yl)benzene-1-sulfonamide, reference compound]
trough systolic blood pressure ([1]; chlorothalidone 25 mg orally once a day, before A2-73): 150 mg Hg

COCCc1ccc(OCC(O)CNC(C)C)cc1 (racemic) [metoprolol tartrate, (RS)-1-[4-(2-Methoxyethyl)phenoxy]-3-[(propan-2-yl)amino]propan-2-ol, reference compound]
maximum diurnal systolic blood pressure ([2]; metoprolol tartrate 50 mg twice daily, before A2-73): 150 mg Hg

CN(C)CC1CCOC1(c1ccccc1)c1ccccc1.Cl (centres unmarked) [A2-73, tetrahydro-N,N-dimethyl-2,2-diphenyl-3-furanmethanamine hydrochloride]
maximum diurnal systolic blood pressure ([2]; oral A2-73 50 mg/day for 25 days, combined with continued metoprolol tartrate 50 mg twice daily): 135 mg Hg
24-hour ambulatory systolic blood pressure ([3]; 5 mg A2-73 orally once a day): 150 mg Hg
24-hour ambulatory systolic blood pressure ([3]; A2-73 30 mg/day oral for 25 days): 135 mg Hg
observed adverse events ([4]; at the highest doses): moderate and reversible dizziness and headache
blood pressure, resting heart rate, vital signs and 12-lead ECG changes ([4]; in vivo, po): did not show any clinically relevant or dose-dependent changes
pharmacokinetics ([4]; in vivo, po): suitable for daily oral dosing
serious adverse events ([4]; single ascending oral dose, 22 healthy male volunteers): No serious adverse events occurred
maximum tolerable dose [4, 6]: 55 mg
minimum intolerable dose [4, 6]: 60 mg
safety and tolerability of ascending single oral doses ([4]; single oral doses of 1, 10, 30, 40, 50 and 55 mg, healthy subjects): safe and well tolerated
tolerability in human patients ([5]; Phase I and Phase IIa clinical trials): well tolerated
change in SBP, first reading vs other subsequent readings (day 25, day 36) ([5]; multivariable adjusted models (FIG. 1), p=0.048 and 0.008): significant decline in SBP
change in SBP, second measurement (day one, pre-dose) vs all subsequent measurements ([5]; unadjusted analyses, p=0.120 and 0.972 (day 25, day 36)): no significant decline
change in SBP, first measurement vs all subsequent measurements ([5]; unadjusted analyses, paired t-test, p=0.007, 0.001 and 0.007, 32 Alzheimer's disease patients, oral or intravenous): significant decline in SBP
trough systolic blood pressure ([1]; oral A2-73 10 mg/day for 25 days, combined with continued chlorothalidone 25 mg once a day): 135 mg Hg
